A melting point compilation (Tetko et al.; mined from patent text by program, amines drawn as free bases though some values may be those of a salt)
Residues, ends and D or L forms follow the SMILES beside them.

Compound | melting point [°C]
CC(=O)C=Cc1c(-c2ccccc2)nn2ccccc12 | 134 to 136
C=C1N(CCCCCCC)C(=O)OC12CCN(Cc1ccccc1)CC2 | 47 to 48
COc1ccc(C(=O)Nc2ccc3ccc(Nc4ccccc4)nc3n2)cc1 | 245
CC(=O)S[C@@H](CCc1ccccc1C)C(=O)O | 47 to 48
O=CCc1ccc2c(c1[N+](=O)[O-])C(=O)c1ccccc1C2=O | 192
COC(=O)CCc1cc2cc(Cl)ccc2n1S(=O)(=O)c1ccc2c(c1)CCN2C(C)=O | 129
c1ccc(COc2cccc3sncc23)cc1 | 47 to 49
Cc1cc2cc(NS(C)(=O)=O)cc(-c3cc(Cl)nc4ccccc34)c2n1CC(=O)O | 195 to 198
CCOC(=O)CCCCCCC1C(=O)NC(=O)N1C1(O)CCCCC1 (stereo not drawn) | 62 to 63
NS(=O)(=O)c1ccc(NC(=O)c2ccccc2SSCC(O)CO)cc1 (stereo not drawn) | > 260
CN1[C@@H](c2cccc(Br)c2)c2ccccc2S1(=O)=O | 157
O=P(O)(O)C(F)P(=O)(O)O | 162 to 163
COc1ccc(S(=O)C(C(=O)NO)c2ccccc2)cc1 (stereo not drawn) | 135
CC(C)(O)C(=O)c1ccc(C(O)c2ccc(C(=O)C(C)(C)O)cc2)cc1 | 130
Cc1ccc(N(C)C(=O)Cc2ccccc2)s1 | 77 to 79
Brc1ccc2c(c1)cc1n2CCC1 | 78.7 to 79.4
CN(C)c1ccc(Cn2nnc(-c3ccc(OC(=O)C(C)(C)C)c(N(C)C)c3)n2)cc1 | 73 to 74
O=C(O)c1ccc(OCCCc2ccc(OCCCCOc3ccccc3)cc2)c(C(=O)N2CCC(C(=O)O)CC2)c1 | 142 to 143
Cc1nc2c([N+](=O)[O-])cc3nc(O)c(O)nc3c2nc1C | > 300
CCOCc1nc2c(N)nc3cc(-c4cncc(OC)c4)ccc3c2n1CC(C)(C)OCCS(C)(=O)=O | 186 to 188
CNS(=O)(=O)c1ccc(C2=C(c3cccc(F)c3)C(=O)C(C)(C)O2)cc1 | 176 to 177
CSCCC(N)C(=O)NC(CCSC)C(=O)O (stereo not drawn) (H-Met-Met-OH; configuration not given here) | 234 to 236
COc1ccc2c(c1)CCC1=C2CCC2(CC(C)C)C(=O)CCC12 (stereo not drawn) | 117 to 119
COc1cc(OC)nc(NC(=O)NS(=O)(=O)c2ccccc2C(O)c2cccs2)n1 (stereo not drawn) | 152 to 154
CC(C)(C)OC(=O)[C@@H]1CC[C@H](c2ccccc2)N1C(=O)CNC(=O)Nc1cccc(CC(=O)O)c1 | 112

Compound | melting point [°C]
COC(=O)c1nc(Cl)c(Cl)c(Cl)c1N | 151 to 152
OCC1Cc2c(c(Cl)cc3c(-c4c(F)cccc4F)noc23)O1 (stereo not drawn) | 166 to 169
CC1CC=NN1C(=O)c1cnccn1 (stereo not drawn) | 77 to 79
CCOC(=O)CC(=O)c1cccc([N+](=O)[O-])c1C | 50 to 51
CC#CCOc1ccc(S(=O)(=O)N(Cc2cccnc2)C2(C(=O)NO)CCCCC2)cc1 | 179 to 181
CN(CCc1ccncc1)C(=O)CCSc1cc(C(C)(C)C)c(O)c(C(C)(C)C)c1 | 129 to 132
c1ccc(-c2ccc(CCOc3ncnc4ccccc34)cc2)cc1 | 72 to 74
COC(=O)C(C)(C)Cc1ccc(-c2ccc(CC(C)(C)C(=O)OC)cc2)cc1 | 68 to 70
COc1ccc2nc3ccc(C(N)=O)cn3c(=O)c2c1 | > 310
Cc1c(F)c(F)c(F)c(F)c1C(=O)O | 80 to 82
COC(=O)CCc1cc2cc(Cl)ccc2n1S(=O)(=O)c1ccccc1 | 93 to 96
O=C(c1ccccc1)N(CCN1CCC(Nc2nc3ccccc3n2Cc2ccc(F)cc2)CC1)c1nccs1 | 156
CS(=O)(=O)Nc1ccc(C(=O)O)cc1Oc1ccc(F)cc1F | 167 to 169
CCCN(Cc1ccc(-c2ccccc2-c2nc(=O)o[nH]2)cc1)c1nn(C)cc1C(=O)O | 124 to 126
CCOC(=O)Cc1ccc(NC(=O)C(CO)NS(=O)(=O)c2ccc(Cl)cc2)cc1 (racemic) | 139 to 140
CCCCN(Cc1ccc(-c2ccccc2-c2nnn[nH]2)cc1)c1ncccc1C(=O)O | 203 to 205
Cc1ccc(Sc2ccnc(Cl)n2)cc1 | 80 to 81
Cc1ccc(NC(=O)C(N)c2ccc3c(c2)C(C)(C)CCC3(C)C)cc1 (stereo not drawn) | 161 to 163
CCOC(=O)c1cnc2cc(N)ccc2n1 | 181 to 183
CCOC=Nc1nc(-c2ccc(C3CCCCC3)cc2)cs1 | 84 to 85
CSc1cc(C(=O)O)cc([N+](=O)[O-])c1C(=O)c1ccccc1 | 210 to 213
COC(=O)c1csc(NC(=O)c2ccc(C#N)cc2)n1 | 228
CCc1nc2c(n1C(CC)CC)C(=O)N(C)C(C)N2c1ccc(Cl)cc1Cl (stereo not drawn) | 135 to 136
CCN(CC)Cc1nc2cc(OC)c(OC)cc2c(-c2ccc(OC)c(OC)c2)c1C(C)O (stereo not drawn) | 144 to 145
O=C(O)CCc1cn(Cc2ccc(OCc3cccc(-c4cnccn4)c3)cc2)cc1-c1ccccc1 | 91 to 92

Compound | melting point [°C]
O=C(c1ccc(-c2ccccc2)cc1)c1cccnc1Cl | 128 to 132
Nn1nc(-c2ccc(Cl)cc2)cc1OCCN1CCCCC1 | 119
CC(C)(C)CNc1nc(Cl)cc(Cl)n1 | 63 to 66
CCOC(=O)COC(c1cccc(-c2nnc(Nc3ccc(Cl)c(Cl)c3)s2)c1)c1cccc(C(F)(F)F)c1 (stereo not drawn) | 135 to 136
O=C1c2ccccc2C(O)(c2ccc(Cl)cc2)N1Cc1ccc([N+](=O)[O-])cc1 (stereo not drawn) | 197 to 200
Nc1nccnc1C=O | 110 to 114
CCc1nc2c(C)cc(C)nc2n1Cc1ccc2c(c1)CCc1ccccc1N2Cc1nnn[nH]1 | 177 to 179
c1ccc(Oc2ccc(Nc3ncnc4cnc(N5CCCCC5)nc34)cc2)cc1 | 175
CN1CC(c2cc(CCc3ccc(F)cc3)ccn2)=C(O)C1=O | 167 to 168
CC(=O)Nc1ccc(C=CC(=O)O)c(NC(=O)NC(=O)c2cc(F)c(F)cc2Cl)c1 | 196
CNc1nc2[nH]c(-c3cccc(CNC(=O)COC)n3)cc2c2c1ncn2C | 263
CS(=O)(=O)Nc1cc(-c2ncc(C(F)(F)F)cc2Cl)ccc1Cl | 133 to 134
CCCOc1ccccc1-c1nc2cc3ncn(CC(C)C4CCCCC4)c3cc2c(=O)[nH]1 (stereo not drawn) | 178 to 180
O=C(Nc1ccccc1)c1ccc(CSc2ccc(O)cc2)cc1 | 220 to 222
CS(=O)(=O)c1ccc(CN2CCN(C(=O)N3CCC(c4cn[nH]c4)C3)c3ccccc32)cc1 (stereo not drawn) | 239
Cc1ccccc1-c1cccc2c1CCn1cc(-c3ccccc3)nc1C2OC1CCN(C)CC1 (stereo not drawn) | 94
CC1(C)Oc2ccc(S(=O)(=O)c3ccccc3)cc2C(N)C1O (stereo not drawn) | 160 to 163
Cc1c(C(=O)Nc2ccc(N3CCC(N4CCOCC4)CC3)c(Cl)c2)cnn1-c1ccc(Cl)cc1 | 238 to 240
C=Cc1c(N)cc(Cl)nc1C(=O)OC | 53 to 54
Cc1nc(S(=O)Cc2ccc(Cl)cc2)nc2c1CCCC2 (stereo not drawn) | 127
COc1cccc2nc(-c3ccc(C)cc3)cc(OCC(=O)N3CCOCC3)c12 | 132
O=C1NC(=O)C(Cc2ccc(OCCN3C(=O)SC(c4ccccc4)C3=O)cc2)S1 (stereo not drawn) | 67
Cc1ccc2c(c1)c1c(OCC#N)cccc1n2Cc1ccccc1 | 188
C#C/C(=C\c1cccnc1)c1c[nH]c2ccc(OC)cc12 | 136
CCCCNC(=O)NS(=O)(=O)c1c(C(=O)OCC)cnn1-c1ccc2ccccc2n1 | 140 to 142

Compound | melting point [°C]
CCCCCCCCCCCCc1nnn(C(CCC)C(=O)Nc2c(OC)cc(OC)cc2OC)n1 (stereo not drawn) | 146 to 148
OC(CCN1CC=C(c2ccccc2)CC1)c1ccc(CCc2ccc(Cl)cc2)cc1 (stereo not drawn) | 158 to 160
CC(C)S(=O)(=O)Nc1cccc(C=C2c3ccccc3CCc3ccccc32)c1 | 188
O=C(O)CCC(=O)C(=O)N1CCCC1 | 101 to 102
NCCNc1ccc(NCCO)cc1[N+](=O)[O-] | 112
CN1C(=O)C(Cl)=C(C#N)C1=O | 141 to 143
Cc1sc(Cc2ccccc2)c(-c2ccc(-c3ccc(OS(=O)(=O)c4ccc(C(=O)O)c(O)c4)cc3)cc2)c1C | 173 to 175
CCc1nccn1CCc1ccc(Nc2ncc(C#N)c(-c3ccc(C(C)(C)N)cc3)n2)cc1 | 138
CCOC(=O)c1nc2ccc(N)cc2c(=O)[nH]1 | 233 to 235
Cn1cc(-c2cccc(N3CCc4c(sc5c4CCCC5)C3=O)c2CO)cc(Nc2ccc(C3CNC3)cn2)c1=O | 140 to 142
Cn1cc(C(=O)O)c(=O)c2c3cc(F)c(N4CCCC4)cc3ncc21 | 365
COc1ccc(C(CCCCCCC(=O)O)=NOCc2ccc(OCc3nc(-c4ccccc4)oc3C)cc2)cc1 | 69 to 70
OC(COc1ccc(-n2cncn2)cc1)CN1CCN(c2ccc(F)cc2)CC1 (stereo not drawn) | 149 to 150
CCN1CCCC(N2C(=O)c3ccc(N)cc3C2=O)C1 (stereo not drawn) | > 300
O=C(Cc1ccc(F)cc1)c1c(O)c2cccnc2n(-c2ccccc2)c1=O | 185 to 187
COc1ccc(C(CCCCC(=O)O)C2=C(C)C(=O)c3ccccc3C2=O)cc1 (stereo not drawn) | 68 to 71
CCCCNc1nc(C)c(C(=O)OCC)c2c1nnn2CC | 85 to 87
CC(C)N(CC1CCCCN1CCNC(=O)N1c2ccccc2C(=O)Nc2cccnc21)C(C)C (stereo not drawn) | 181 to 182
CSC(=Nc1nc(C)cc(C)n1)NS(=O)(=O)c1ccccc1-c1ccccc1 | 154 to 157
COC(=O)CCCCC(=O)c1cccc(F)c1O | 59 to 60
Clc1nc(C2CC2)nc(N2CCOCC2)n1 | 99 to 100
Cc1ccc(C(NCC(=O)Nc2c(C(C)C)cccc2C(C)C)c2ccccc2)cc1 (stereo not drawn) | 165 to 166
CSc1c(F)cc(C(=O)CBr)cc1F | 30.5 to 33.2
